Laboratory results reported in US12099051B2 (priority 2022, dated 2024).
In brackets after ≈: the same amount, converted by molar mass. Several values for one entry are separate records, joined by “and”; a condition that tells them apart may be missing. Equal values may be shown once.

What was measured:
[1] = tested on: Caenorhabditis elegans (N2 wild-type); experiment: whole plant or invertebrate; format: in vivo
[2] = tested on: Caenorhabditis elegans (N2 wild-type); settings: in vivo
Caenorhabditis elegans = settings: in vivo
[3] = tested on: Caenorhabditis elegans mutant strain Daf-16 (mu86); settings: in vivo
[4] = tested on: Caenorhabditis elegans mutant strain Daf-2 (e1370); settings: in vivo
[5] = tested on: Caenorhabditis elegans mutant strain Daf-16 (mu86); settings: in vivo; remark: listed apart in the source
[6] = tested on: Caenorhabditis elegans mutant strain Daf-2 (e1370); settings: in vivo; remark: listed apart in the source

Compound: O=C1C=C2C(=CCOC2O)O1 (stereo not shown) [PAT, Patulin]
- EC50 ([1]; Caenorhabditis elegans, 24 h): 44.2 µg/mL (≈ 287 µM)
- body length ratio ([1]; in vivo): 64.45% and 55.55%
- concentration at which nematode's body length is significantly confined (P<0.001) ([1]; in vivo): 25 µg/mL
- concentration at which nematode's spawning rate is significantly confined (P<0.001) [2]: 5 µg/mL
- spawning rate [2]: 49.41%
- relative fluorescence intensity ratio (ROS) (Caenorhabditis elegans): 136.92% and 149.43%
- body length ratio of Daf-16 mutant strain compared with N2 wild type [3]: higher body length ratio than the N2 wild type
- effect of Daf-2 gene silencing on developmental toxicity [4]: does not slow down the developmental toxicity
- spawning rate of Daf-16 mutant strain compared with N2 wild-type [5]: higher spawning rate than the N2 wild-type
- spawning rate of Daf-2 mutant strain compared with N2 [6]: no significant difference from N2
